Source: patent US20140348819A1, “Methods of Treating Cancer” (Dana-Farber Cancer Institute, Inc., priority 2011, published 2014)

Test system: six V600E BRAF melanoma cell lines
Test: Screening of recombinant RTK ligands for ability to confer resistance to BRAFi (PLX4720) or MEKi (PD184352) (Table 4)
Type: cell-based, human
Set-up: ability of recombinant RTK ligand to confer resistance / ability of recombinant RTK ligand to confer resistance (screening value): scale not given here
Outline: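 Resistance to BRAFi (PLX4720) or MEKi (PD184352) was tested in six V600E BRAF melanoma lines given one of 22 recombinant RTK ligands. For a subset of RTKs, activation was checked by high-throughput tyrosine kinase phosphorylation profiling and western blot.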

For neuregulin 1, the “ability of recombinant RTK ligand to confer resistance” value (“ability of recombinant RTK ligand” for short) (A2058, PD184352 - 1 uM, ligand 1.6 ng/ml) was 1.04, the “ability of recombinant RTK ligand” value (A2058, PD184352 - 1 uM, ligand 6.25 ng/ml) was 1.08 and the “ability of recombinant RTK ligand” value (A2058, PD184352 - 1 uM, ligand 25 ng/ml) was 1.14. For the same substance, the “ability of recombinant RTK ligand” value (A2058, PD184352 - 1 uM, ligand 100 ng/ml) was 1.18, the “ability of recombinant RTK ligand” value (A2058, PD184352 - 1 uM, ligand 400 ng/ml) was 1.27 and the “ability of recombinant RTK ligand” value (A2058, PLX4720 - 2 uM, ligand 1.6 ng/ml) was 1.05. For the same substance, the “ability of recombinant RTK ligand” value (A2058, PLX4720 - 2 uM, ligand 6.25 ng/ml) was 1.07, the “ability of recombinant RTK ligand” value (A2058, PLX4720 - 2 uM, ligand 25 ng/ml) was 1.12 and the “ability of recombinant RTK ligand” value (A2058, PLX4720 - 2 uM, ligand 100 ng/ml) was 1.09. For the same substance, the “ability of recombinant RTK ligand” value (A2058, PLX4720 - 2 uM, ligand 400 ng/ml) was 1.22, the “ability of recombinant RTK ligand” value (C32, PD184352 - 1 uM, ligand 1.6 ng/ml) was 1.12 and the “ability of recombinant RTK ligand” value (C32, PD184352 - 1 uM, ligand 6.25 ng/ml) was 1.20. For the same substance, the “ability of recombinant RTK ligand” value (C32, PD184352 - 1 uM, ligand 25 ng/ml) was 1.24, the “ability of recombinant RTK ligand” value (C32, PD184352 - 1 uM, ligand 100 ng/ml) was 1.52 and the “ability of recombinant RTK ligand” value (C32, PD184352 - 1 uM, ligand 400 ng/ml) was 1.32. The “ability of recombinant RTK ligand” value (C32, PLX4720 - 2 uM, ligand 1.6 ng/ml) was 1.01, the “ability of recombinant RTK ligand” value (C32, PLX4720 - 2 uM, ligand 6.25 ng/ml) was 1.07 and the “ability of recombinant RTK ligand” value (C32, PLX4720 - 2 uM, ligand 25 ng/ml) was 1.10. The “ability of recombinant RTK ligand” value (C32, PLX4720 - 2 uM, ligand 100 ng/ml) was 1.20, the “ability of recombinant RTK ligand” value (C32, PLX4720 - 2 uM, ligand 400 ng/ml) was 1.22 and the “ability of recombinant RTK ligand” value (Colo 829, PD184352 - 1 uM, ligand 1.6 ng/ml) was 1.10. For the same substance, the “ability of recombinant RTK ligand” value (Colo 829, PD184352 - 1 uM, ligand 6.25 ng/ml) was 1.04, the “ability of recombinant RTK ligand” value (Colo 829, PD184352 - 1 uM, ligand 25 ng/ml) was 1.11 and the “ability of recombinant RTK ligand” value (Colo 829, PD184352 - 1 uM, ligand 100 ng/ml) was 1.37. The “ability of recombinant RTK ligand” value (Colo 829, PD184352 - 1 uM, ligand 400 ng/ml) was 1.21, the “ability of recombinant RTK ligand” value (Colo 829, PLX4720 - 2 uM, ligand 1.6 ng/ml) was 0.03 and the “ability of recombinant RTK ligand” value (Colo 829, PLX4720 - 2 uM, ligand 6.25 ng/ml) was 0.98. The “ability of recombinant RTK ligand” value (Colo 829, PLX4720 - 2 uM, ligand 25 ng/ml) was 1.06, the “ability of recombinant RTK ligand” value (Colo 829, PLX4720 - 2 uM, ligand 100 ng/ml) was 1.24 and the “ability of recombinant RTK ligand” value (Colo 829, PLX4720 - 2 uM, ligand 400 ng/ml) was 1.17. For the same substance, the “ability of recombinant RTK ligand” value (G-361, PD184352 - 1 uM, ligand 1.6 ng/ml) was 0.93, the “ability of recombinant RTK ligand” value (G-361, PD184352 - 1 uM, ligand 6.25 ng/ml) was 0.96 and the “ability of recombinant RTK ligand” value (G-361, PD184352 - 1 uM, ligand 25 ng/ml) was 0.98. For the same substance, the “ability of recombinant RTK ligand” value (G-361, PD184352 - 1 uM, ligand 100 ng/ml) was 1.01, the “ability of recombinant RTK ligand” value (G-361, PD184352 - 1 uM, ligand 400 ng/ml) was 1.17 and the “ability of recombinant RTK ligand” value (G-361, PLX4720 - 2 uM, ligand 1.6 ng/ml) was 0.87. The “ability of recombinant RTK ligand” value (G-361, PLX4720 - 2 uM, ligand 6.25 ng/ml) was 1.06, the “ability of recombinant RTK ligand” value (G-361, PLX4720 - 2 uM, ligand 25 ng/ml) was 0.93 and the “ability of recombinant RTK ligand” value (G-361, PLX4720 - 2 uM, ligand 100 ng/ml) was 0.99. For the same substance, the “ability of recombinant RTK ligand” value (G-361, PLX4720 - 2 uM, ligand 400 ng/ml) was 1.14, the “ability of recombinant RTK ligand” value (SK-MEL-5, PD184352 - 1 uM, ligand 1.6 ng/ml) was 0.96 and the “ability of recombinant RTK ligand” value (SK-MEL-5, PD184352 - 1 uM, ligand 6.25 ng/ml) was 0.97. For the same substance, the “ability of recombinant RTK ligand” value (SK-MEL-5, PD184352 - 1 uM, ligand 25 ng/ml) was 1.01, the “ability of recombinant RTK ligand” value (SK-MEL-5, PD184352 - 1 uM, ligand 100 ng/ml) was 1.06 and the “ability of recombinant RTK ligand” value (SK-MEL-5, PD184352 - 1 uM, ligand 400 ng/ml) was 1.07. For the same substance, the “ability of recombinant RTK ligand” value (SK-MEL-5, PLX4720 - 2 uM, ligand 1.6 ng/ml) was 0.94, the “ability of recombinant RTK ligand” value (SK-MEL-5, PLX4720 - 2 uM, ligand 6.25 ng/ml) was 0.91 and the “ability of recombinant RTK ligand” value (SK-MEL-5, PLX4720 - 2 uM, ligand 25 ng/ml) was 0.98. The “ability of recombinant RTK ligand” value (SK-MEL-5, PLX4720 - 2 uM, ligand 100 ng/ml) was 1.04, the “ability of recombinant RTK ligand” value (SK-MEL-5, PLX4720 - 2 uM, ligand 400 ng/ml) was 0.96 and the “ability of recombinant RTK ligand” value (SK-MEL-28, PD184352 - 1 uM, ligand 1.6 ng/ml) was 1.09. The “ability of recombinant RTK ligand” value (SK-MEL-28, PD184352 - 1 uM, ligand 6.25 ng/ml) was 1.08, the “ability of recombinant RTK ligand” value (SK-MEL-28, PD184352 - 1 uM, ligand 25 ng/ml) was 1.05 and the “ability of recombinant RTK ligand” value (SK-MEL-28, PD184352 - 1 uM, ligand 100 ng/ml) was 1.08. The “ability of recombinant RTK ligand” value (SK-MEL-28, PD184352 - 1 uM, ligand 400 ng/ml) was 1.22, the “ability of recombinant RTK ligand” value (SK-MEL-28, PLX4720 - 2 uM, ligand 1.6 ng/ml) was 0.92 and the “ability of recombinant RTK ligand” value (SK-MEL-28, PLX4720 - 2 uM, ligand 6.25 ng/ml) was 1.18. The “ability of recombinant RTK ligand” value (SK-MEL-28, PLX4720 - 2 uM, ligand 25 ng/ml) was 1.09, the “ability of recombinant RTK ligand” value (SK-MEL-28, PLX4720 - 2 uM, ligand 100 ng/ml) was 1.09 and the “ability of recombinant RTK ligand” value (SK-MEL-28, PLX4720 - 2 uM, ligand 400 ng/ml) was 1.19.
